According to patent US6455507B1, “Benzimidazole derivatives” (SmithKline Beecham Corporation, priority 1997, dated 2002):

Tests used:
HCMV strain AD169 = test: Human Cytomegalovirus Assay (HCMV DNA hybridization); assay type: cell-based; details: HCMV strain AD169 on MRC5 cell monolayers, 5 days incubation, antiviral effect from HCMV DNA by quantitative hybridization
Protocol: HCMV strain AD169 was grown on monolayers of human embryonic lung cells (MRC5 cells) in 96 well plates. After infection of the cells at a ratio of approximately 0.01 infectious virus particles per cell, the compounds to be tested were added to selected wells at six different concentrations, each in triplicate. The same concentrations of compound were also applied to wells containing monolayers of uninfected cells in order to assess compound cytotoxicity. The plates were incubated for 5 days, and the minimum cytotoxic dose was estimated from microscopic examination. The IC50 for antiviral effect was estimated from measurements of HCMV DNA in each well by blotting and quantitative specific DNA hybridization, similar to the method of Gadler (Antimicrob. Agents Chemother. 1983, 24, 370-374).

O[C@@H]1[C@H](O)[C@H](O)CO[C@H]1n1c(Br)nc2cc(Cl)c(Cl)cc21 [Example 2, 2-Bromo-5,6-dichloro-1-beta-D-ribopyranosyl-1H-benzimidazole]
IC50 (HCMV strain AD169; Human betaherpesvirus 5, 120 h): 700 nM
melting point: 175 °C (dec.)

CC(=O)O[C@@H]1[C@H](OC(C)=O)[C@H](OC(C)=O)CO[C@H]1n1c(Br)nc2cc(Cl)c(Cl)cc21 [Example 1, 2-Bromo-5,6-dichloro-1-(2,3,4-tri-O-acetyl-beta-D-ribopyranosyl)-1H-benzimidazole]
IC50 (HCMV strain AD169; Human betaherpesvirus 5, 120 h): 1000 nM
melting point: 100 to 110 °C

OC[C@H]1OC[C@@H](n2c(NC3CC3)nc3cc(Cl)c(Cl)cc32)[C@H](O)[C@@H]1O [Example 41, (3R,4S ,5S ,6R)-5,6-Dichloro-2-(cyclopropylamino)-1-(tetrahydro-4,5-dihydroxy-6-(hydroxymethyl)-2H-pyran-3-yl)-1H-benzimidazole]
melting point: 244 °C (dec.)

O[C@@H]1CCCC[C@H]1n1c(Br)nc2cc(Cl)c(Cl)cc21 (racemic) [Example 45, (±)-trans-2-(2-Bromo-5,6-dichloro-1H-benzimidazol-1-yl)cyclohexanol]
melting point: 201 to 202 °C

2-Bromo-5,6-dichloro/4-fluoro-1-beta-D-ribopyranosyl-1H-benzimidazole [Example 24]
IC50 (HCMV strain AD169): 900 nM

OC[C@@H]1OC[C@H](n2c(NC3CC3)nc3cc(Cl)c(Cl)cc32)[C@@H](O)[C@H]1O [Example 43, (3S,4R,5R,6S)-5,6-Dichloro-2-(cyclopropylamino)-1-(tetrahydro-4,5-dihydroxy-6-(hydroxymethyl)-2H-pyran-3-yl)-1H-benzimidazole]
melting point: 164 °C

OC[C@@H]1OC[C@H](n2c(Br)nc3cc(Cl)c(Cl)cc32)[C@@H](O)[C@H]1O [Example 42, (3S,4R,5R,6S)-2-Bromo-5,6-dichloro-1-(tetrahydro-4,5-dihydroxy-6-(hydroxymethyl)-2H-pyran-3-yl)-1H-benzimidazole]
melting point: 207 to 208 °C

OC[C@@H]1OC[C@H](n2c(NC3CC3)nc3cc(Cl)c(Cl)cc32)C[C@H]1O [Example 39, (3R,5R,6S)-5,6-Dichloro-2-(cyclopropylamino)-1-(tetrahydro-5-hydroxy-6-(hydroxymethyl)2H-pyran-3-yl)-1H-benzimidazole]
melting point: 98 to 99 °C

O[C@@H]1CCCC[C@H]1n1c(NC2CC2)nc2cc(Cl)c(Cl)cc21 (racemic) [Example 46, (±)-trans-2-[5,6-Dichloro-2-(cyclopropylamino)-1H-benzimidazol-1-yl]cyclohexanol]
melting point: 149 to 151 °C

CC(C)Nc1nc2cc(Cl)c(Cl)cc2n1[C@@H]1OC[C@@H](O)[C@@H](O)[C@H]1O [Example 3, 5,6-Dichloro-N-1(1-methylethyl)-1-beta-D-ribopyranosyl-1H-benzimidazole-2-amine]
IC50 (HCMV strain AD169): 22000 nM

CC(=O)O[C@@H]1[C@H](OC(C)=O)[C@@H](n2c(Br)nc3cc(Cl)c(Cl)cc32)OC[C@@H]1OC(C)=O [Example 4, 2-Bromo-5,6-dichloro-1-(2,3,4-tri-O-acetyl-beta-L-ribopyranosyl)-1H-benzimidazole]
melting point: 110 °C

Cc1cc2nc(Br)n([C@@H]3OC[C@@H](O)[C@@H](O)[C@H]3O)c2cc1Cl [Example 13, 2-Bromo-6-chloro-5-methyl-1-beta-D-ribopyranosyl-1H-benzimidazole]
IC50 (HCMV strain AD169; Human betaherpesvirus 5, 120 h): 6000 nM
melting point: 170 to 175 °C (dec.)

OC[C@H]1OC[C@@H](n2c(Br)nc3cc(Cl)c(Cl)cc32)[C@H](O)[C@@H]1O [Example 40, (3R,4S,5S,6R)-2-Bromo-5,6-dichloro-1-(tetrahydro-4,5-dihydroxy-6-(Hydroxymethyl)-2H-pyran-3-yl)-1H-benzimidazole]
melting point: 207 to 209 °C

O[C@H]1[C@H](O)[C@@H](n2c(Br)nc3cc(Cl)c(Cl)cc32)OC[C@@H]1O [Example 57, 2-Bromo-5,6-dichloro-1-beta-L-xylopyranosyl-1H-benzimidazole]
melting point: 164 to 165 °C
